Experimental data reported in patent US9738634B2, “Heterocyclic amide compound and herbicide” (SYNGENTA PARTICIPATIONS AG, priority 2013, dated 2017).

Columns and labels:
Type in all cases: in vivo
corn [1] = assay: Test Example 4: foliar treatment, effect on crop; c: corn; conditions: treatment dosage 315 g/ha
Outline: (§1)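 Seeds are spot-sown into sterilized diluvial soil and covered with about 1.5 cm of soil. After 14 days' greenhouse growth at 25 to 30° C, plants are sprayed on stems and leaves with diluted emulsion at the stated g/ha rate, then scored at 3 weeks.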

barnyard grass [2] = assay: Test Example 1: weedkilling efficacy, preemergent weed treatment in the submerged state; A: barnyard grass; conditions: treatment dosage 252 g/ha
Outline: (§2)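 Pre-emergence paddy test: weed seeds sown in submerged alluvial soil (4 cm water), 2.5-leaf rice transplanted, water-diluted emulsion applied to water surface at sowing at stated g/ha. Scored at 3 weeks, greenhouse 25–30 °C.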

Indian mallow [3] = assay: Test Example 3: weedkilling efficacy through soil treatment; K: Indian mallow; conditions: treatment dosage 315 g/ha
Outline: (§3)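 Crop and weed responses were judged three weeks after a uniform surface spray of the water-diluted emulsion at the given g/ha rate. Seeds sat beneath about 1.5 cm of sterilized diluvial soil, and boxes stood in a greenhouse at 25 to 30° C.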

green foxtail [4] = assay: Test Example 3: weedkilling efficacy through soil treatment; E: green foxtail; conditions: treatment dosage 315 g/ha
Outline: as §3

green foxtail [5] = assay: Test Example 4: weedkilling efficacy by foliar treatment; E: green foxtail; conditions: treatment dosage 315 g/ha
Outline: as §1

Indian mallow [6] = assay: Test Example 4: weedkilling efficacy by foliar treatment; K: Indian mallow; conditions: treatment dosage 315 g/ha
Outline: as §1

fig-leafed goosefoot [7] = assay: Test Example 4: weedkilling efficacy by foliar treatment; M: fig-leafed goosefoot; conditions: treatment dosage 315 g/ha
Outline: as §1

birds-eye speedwell [8] = assay: Test Example 4: weedkilling efficacy by foliar treatment; p: birds-eye speedwell; conditions: treatment dosage 315 g/ha
Outline: as §1

directly sown rice [9] = assay: Test Example 3: soil treatment, effect on crop; b: directly sown rice; conditions: treatment dosage 315 g/ha
Outline: as §3

redroot pigweed [10] = assay: Test Example 3: weedkilling efficacy through soil treatment; L: redroot pigweed; conditions: treatment dosage 315 g/ha
Outline: as §3

fig-leafed goosefoot [11] = assay: Test Example 3: weedkilling efficacy through soil treatment; M: fig-leafed goosefoot; conditions: treatment dosage 315 g/ha
Outline: as §3

chickweed [12] = assay: Test Example 4: weedkilling efficacy by foliar treatment; N: chickweed; conditions: treatment dosage 315 g/ha
Outline: as §1

chickweed [13] = assay: Test Example 3: weedkilling efficacy through soil treatment; N: chickweed; conditions: treatment dosage 315 g/ha
Outline: as §3

catchweed [14] = assay: Test Example 3: weedkilling efficacy through soil treatment; O: catchweed; conditions: treatment dosage 315 g/ha
Outline: as §3

birds-eye speedwell [15] = assay: Test Example 3: weedkilling efficacy through soil treatment; p: birds-eye speedwell; conditions: treatment dosage 315 g/ha
Outline: as §3

beet [16] = assay: Test Example 4: foliar treatment, effect on crop; f: beet; conditions: treatment dosage 315 g/ha
Outline: as §1

soybean [17] = assay: Test Example 3: soil treatment, effect on crop; d: soybean; conditions: treatment dosage 315 g/ha
Outline: as §3

black-grass [18] = assay: Test Example 3: weedkilling efficacy through soil treatment; H: black-grass; conditions: treatment dosage 315 g/ha
Outline: as §3

bulrush [19] = assay: Test Example 1: weedkilling efficacy, preemergent weed treatment in the submerged state; B: bulrush; conditions: treatment dosage 252 g/ha
Outline: as §2

wheat [20] = assay: Test Example 4: foliar treatment, effect on crop; e: wheat; conditions: treatment dosage 315 g/ha
Outline: as §1

corn [21] = assay: Test Example 3: soil treatment, effect on crop; c: corn; conditions: treatment dosage 315 g/ha
Outline: as §3

transplanted rice = assay: Test Example 1: preemergent weed treatment in the submerged state, effect on crop; a: transplanted rice; conditions: treatment dosage 252 g/ha
Outline: as §2

crabgrass [22] = assay: Test Example 3: weedkilling efficacy through soil treatment; D: crabgrass; conditions: treatment dosage 315 g/ha
Outline: as §3

bulrush [23] = assay: Test Example 2: weedkilling efficacy, growth period weed treatment in the submerged state; B: bulrush; conditions: treatment dosage 252 g/ha
Outline: (§4)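 Seedlings at 1-2 leaves in 4 cm-deep submerged alluvial soil received emulsion formulations on the water surface, dosed per hectare; effects were judged 3 weeks on.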

Italian ryegrass [24] = assay: Test Example 4: weedkilling efficacy by foliar treatment; I: Italian ryegrass; conditions: treatment dosage 315 g/ha
Outline: as §1

redroot pigweed [25] = assay: Test Example 4: weedkilling efficacy by foliar treatment; L: redroot pigweed; conditions: treatment dosage 315 g/ha
Outline: as §1

soybean [26] = assay: Test Example 4: foliar treatment, effect on crop; d: soybean; conditions: treatment dosage 315 g/ha
Outline: as §1

wheat [27] = assay: Test Example 3: soil treatment, effect on crop; e: wheat; conditions: treatment dosage 315 g/ha
Outline: as §3

crabgrass [28] = assay: Test Example 4: weedkilling efficacy by foliar treatment; D: crabgrass; conditions: treatment dosage 315 g/ha
Outline: as §1

oval-leafed pondweed [29] = assay: Test Example 1: weedkilling efficacy, preemergent weed treatment in the submerged state; C: oval-leafed pondweed; conditions: treatment dosage 252 g/ha
Outline: as §2

barnyard grass [30] = assay: Test Example 2: weedkilling efficacy, growth period weed treatment in the submerged state; A: barnyard grass; conditions: treatment dosage 252 g/ha
Outline: as §4

directly sown rice [31] = assay: Test Example 4: foliar treatment, effect on crop; b: directly sown rice; conditions: treatment dosage 315 g/ha
Outline: as §1

Italian ryegrass [32] = assay: Test Example 3: weedkilling efficacy through soil treatment; I: Italian ryegrass; conditions: treatment dosage 315 g/ha
Outline: as §3

beet [33] = assay: Test Example 3: soil treatment, effect on crop; f: beet; conditions: treatment dosage 315 g/ha
Outline: as §3

oval-leafed pondweed [34] = assay: Test Example 2: weedkilling efficacy, growth period weed treatment in the submerged state; C: oval-leafed pondweed; conditions: treatment dosage 252 g/ha
Outline: as §4

catchweed [35] = assay: Test Example 4: weedkilling efficacy by foliar treatment; O: catchweed; conditions: treatment dosage 315 g/ha
Outline: as §1

black-grass [36] = assay: Test Example 4: weedkilling efficacy by foliar treatment; H: black-grass; conditions: treatment dosage 315 g/ha
Outline: as §1

| SMILES | c (corn) effect on crop grade (corn [1]) | A (barnyard grass) weedkilling efficacy grade (barnyard grass [2]) | K (Indian mallow) weedkilling efficacy grade (Indian mallow [3]) | E (green foxtail) weedkilling efficacy grade (green foxtail [4]) | E (green foxtail) weedkilling efficacy grade (green foxtail [5]) | K (Indian mallow) weedkilling efficacy grade (Indian mallow [6]) | M (fig-leafed goosefoot) weedkilling efficacy grade (fig-leafed goosefoot [7]) | P (birds-eye speedwell) weedkilling efficacy grade (birds-eye speedwell [8]) | b (directly sown rice) effect on crop grade (directly sown rice [9]) | L (redroot pigweed) weedkilling efficacy grade (redroot pigweed [10]) | M (fig-leafed goosefoot) weedkilling efficacy grade (fig-leafed goosefoot [11]) | N (chickweed) weedkilling efficacy grade (chickweed [12]) | N (chickweed) weedkilling efficacy grade (chickweed [13]) | O (catchweed) weedkilling efficacy grade (catchweed [14]) | P (birds-eye speedwell) weedkilling efficacy grade (birds-eye speedwell [15]) | f (beet) effect on crop grade (beet [16]) | d (soybean) effect on crop grade (soybean [17]) | H (black-grass) weedkilling efficacy grade (black-grass [18]) | B (bulrush) weedkilling efficacy grade (bulrush [19]) | e (wheat) effect on crop grade (wheat [20]) | other results |
| --- | --- | --- | --- | --- | --- | --- | --- | --- | --- | --- | --- | --- | --- | --- | --- | --- | --- | --- | --- | --- | --- |
| CSc1nsc(NC(=O)C(C)(C)N2COC(C)=C(c3ccccc3)C2=O)n1 [B-1-16] | 2 (weed kill ratio 20% or more, less than 40%) | 5 (weed kill ratio 90% or more, (practically complete withering)) | 0 (weed kill ratio 5% or less (practically no effect)) | 5 (weed kill ratio 90% or more, (practically complete withering)) | 5 (weed kill ratio 90% or more, (practically complete withering)) | 5 (weed kill ratio 90% or more, (practically complete withering)) | 3 (weed kill ratio 40% or more, less than 70%) | 0 (weed kill ratio 5% or less (practically no effect)) | 3 (weed kill ratio 40% or more, less than 70%) | 4 (weed kill ratio 70% or more, less than 90%) | 4 (weed kill ratio 70% or more, less than 90%) | 0 (weed kill ratio 5% or less (practically no effect)) | 3 (weed kill ratio 40% or more, less than 70%) | 5 (weed kill ratio 90% or more, (practically complete withering)) | 4 (weed kill ratio 70% or more, less than 90%) | 1 (weed kill ratio 5% or more, less than 20%) | 0 (weed kill ratio 5% or less (practically no effect)) | 5 (weed kill ratio 90% or more, (practically complete withering)) | 5 (weed kill ratio 90% or more, (practically complete withering)) | 1 (weed kill ratio 5% or more, less than 20%) | c (corn) effect on crop grade (corn [21]): 0 (weed kill ratio 5% or less (practically no effect)); a (transplanted rice) effect on crop grade (transplanted rice): 2 (weed kill ratio 20% or more, less than 40%); D (crabgrass) weedkilling efficacy grade (crabgrass [22]): 5 (weed kill ratio 90% or more, (practically complete withering)); B (bulrush) weedkilling efficacy grade (bulrush [23]): 5 (weed kill ratio 90% or more, (practically complete withering)); I (Italian ryegrass) weedkilling efficacy grade (Italian ryegrass [24]): 3 (weed kill ratio 40% or more, less than 70%); L (redroot pigweed) weedkilling efficacy grade (redroot pigweed [25]): 4 (weed kill ratio 70% or more, less than 90%); d (soybean) effect on crop grade (soybean [26]): 3 (weed kill ratio 40% or more, less than 70%); e (wheat) effect on crop grade (wheat [27]): 5 (weed kill ratio 90% or more, (practically complete withering)); D (crabgrass) weedkilling efficacy grade (crabgrass [28]): 5 (weed kill ratio 90% or more, (practically complete withering)); C (oval-leafed pondweed) weedkilling efficacy grade (oval-leafed pondweed [29]): 5 (weed kill ratio 90% or more, (practically complete withering)); A (barnyard grass) weedkilling efficacy grade (barnyard grass [30]): 5 (weed kill ratio 90% or more, (practically complete withering)); b (directly sown rice) effect on crop grade (directly sown rice [31]): 4 (weed kill ratio 70% or more, less than 90%); I (Italian ryegrass) weedkilling efficacy grade (Italian ryegrass [32]): 4 (weed kill ratio 70% or more, less than 90%); f (beet) effect on crop grade (beet [33]): 0 (weed kill ratio 5% or less (practically no effect)); C (oval-leafed pondweed) weedkilling efficacy grade (oval-leafed pondweed [34]): 5 (weed kill ratio 90% or more, (practically complete withering)); O (catchweed) weedkilling efficacy grade (catchweed [35]): 4 (weed kill ratio 70% or more, less than 90%); H (black-grass) weedkilling efficacy grade (black-grass [36]): 5 (weed kill ratio 90% or more, (practically complete withering)) |
| CC1=C(c2ccccc2)C(=O)N(C(C)(C)C(=O)Nc2nc(-c3ccccc3)ns2)CO1 [B-1-17] | 5 (weed kill ratio 90% or more, (practically complete withering)) | 5 (weed kill ratio 90% or more, (practically complete withering)) | 0 (weed kill ratio 5% or less (practically no effect)) | 5 (weed kill ratio 90% or more, (practically complete withering)) | 5 (weed kill ratio 90% or more, (practically complete withering)) | 5 (weed kill ratio 90% or more, (practically complete withering)) | 4 (weed kill ratio 70% or more, less than 90%) | 3 (weed kill ratio 40% or more, less than 70%) | 0 (weed kill ratio 5% or less (practically no effect)) | 4 (weed kill ratio 70% or more, less than 90%) | 5 (weed kill ratio 90% or more, (practically complete withering)) | 3 (weed kill ratio 40% or more, less than 70%) | 3 (weed kill ratio 40% or more, less than 70%) | 5 (weed kill ratio 90% or more, (practically complete withering)) | 5 (weed kill ratio 90% or more, (practically complete withering)) | 0 (weed kill ratio 5% or less (practically no effect)) | 0 (weed kill ratio 5% or less (practically no effect)) | 5 (weed kill ratio 90% or more, (practically complete withering)) | 5 (weed kill ratio 90% or more, (practically complete withering)) | 0 (weed kill ratio 5% or less (practically no effect)) | c (corn) effect on crop grade (corn [21]): 0 (weed kill ratio 5% or less (practically no effect)); a (transplanted rice) effect on crop grade (transplanted rice): 0 (weed kill ratio 5% or less (practically no effect)); D (crabgrass) weedkilling efficacy grade (crabgrass [22]): 5 (weed kill ratio 90% or more, (practically complete withering)); B (bulrush) weedkilling efficacy grade (bulrush [23]): 5 (weed kill ratio 90% or more, (practically complete withering)); I (Italian ryegrass) weedkilling efficacy grade (Italian ryegrass [24]): 1 (weed kill ratio 5% or more, less than 20%); L (redroot pigweed) weedkilling efficacy grade (redroot pigweed [25]): 5 (weed kill ratio 90% or more, (practically complete withering)); d (soybean) effect on crop grade (soybean [26]): 0 (weed kill ratio 5% or less (practically no effect)); e (wheat) effect on crop grade (wheat [27]): 3 (weed kill ratio 40% or more, less than 70%); D (crabgrass) weedkilling efficacy grade (crabgrass [28]): 5 (weed kill ratio 90% or more, (practically complete withering)); C (oval-leafed pondweed) weedkilling efficacy grade (oval-leafed pondweed [29]): 5 (weed kill ratio 90% or more, (practically complete withering)); A (barnyard grass) weedkilling efficacy grade (barnyard grass [30]): 5 (weed kill ratio 90% or more, (practically complete withering)); b (directly sown rice) effect on crop grade (directly sown rice [31]): 4 (weed kill ratio 70% or more, less than 90%); I (Italian ryegrass) weedkilling efficacy grade (Italian ryegrass [32]): 5 (weed kill ratio 90% or more, (practically complete withering)); f (beet) effect on crop grade (beet [33]): 0 (weed kill ratio 5% or less (practically no effect)); C (oval-leafed pondweed) weedkilling efficacy grade (oval-leafed pondweed [34]): 4 (weed kill ratio 70% or more, less than 90%); O (catchweed) weedkilling efficacy grade (catchweed [35]): 4 (weed kill ratio 70% or more, less than 90%); H (black-grass) weedkilling efficacy grade (black-grass [36]): 5 (weed kill ratio 90% or more, (practically complete withering)) |
